{"source": "paper PMC3734245", "about": "“Surface Display and Bioactivity of Bombyx mori Acetylcholinesterase on Pichia pastoris” (PLoS ONE, 2013)", "data": [{"biological_target": "T1, displayed BmAChE (Bombyx mori, UniProt A5A2M5)", "T1 construct": "signal peptide and hydrophobic C-terminal tail removed; N-terminal FLAG tag; (Gly4Ser)3 linker to S. cerevisiae AGalpha1 anchor at C-terminus; bmace about 1900 bp; primers encode N-terminal RSWANH and C-terminal TGPYSS", "T1 sequence (A5A2M5 entry or part of it)": "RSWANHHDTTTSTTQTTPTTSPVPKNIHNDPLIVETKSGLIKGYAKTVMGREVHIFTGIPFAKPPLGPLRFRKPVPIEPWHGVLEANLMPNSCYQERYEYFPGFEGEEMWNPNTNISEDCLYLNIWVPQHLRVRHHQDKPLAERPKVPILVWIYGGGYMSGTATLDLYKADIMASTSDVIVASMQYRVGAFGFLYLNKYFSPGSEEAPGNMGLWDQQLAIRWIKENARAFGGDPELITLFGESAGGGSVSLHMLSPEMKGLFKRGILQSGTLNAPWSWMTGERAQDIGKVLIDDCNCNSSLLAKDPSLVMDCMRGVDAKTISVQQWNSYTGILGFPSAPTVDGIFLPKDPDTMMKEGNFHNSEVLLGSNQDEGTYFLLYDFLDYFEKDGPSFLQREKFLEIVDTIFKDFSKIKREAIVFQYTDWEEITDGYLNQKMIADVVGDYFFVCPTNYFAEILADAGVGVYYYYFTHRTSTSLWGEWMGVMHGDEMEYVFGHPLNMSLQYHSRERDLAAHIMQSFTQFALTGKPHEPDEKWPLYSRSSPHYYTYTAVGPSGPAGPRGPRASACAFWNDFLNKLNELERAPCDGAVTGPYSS", "experiment": "Ellman assay, yeast cell suspension displaying the enzyme", "type": "cell-based", "units": {"IC50": "nM"}, "values": [{"smiles": "CCOP(=S)(OCC)Oc1ccc([N+](=O)[O-])cc1", "note": "[parathion]", "IC50": 1130}, {"smiles": "CCCCN(CCCC)SN(C)C(=O)Oc1cccc2c1OC(C)(C)C2", "note": "[carbosulfan]", "IC50": 113}, {"smiles": "COP(N)(=O)SC", "note": "(stereo not shown) [methamidophos]", "IC50": 1070}, {"smiles": "COP(=O)(OC)OC=C(Cl)Cl", "note": "[dichlorphos]", "IC50": 903}, {"smiles": "CNC(=O)ON=C(C)SC", "note": "[methomyl]", "IC50": 64.1}, {"smiles": "COP(=O)(OC)C(O)C(Cl)(Cl)Cl", "note": "(stereo not shown) [trichlorphon]", "IC50": 240}, {"smiles": "CNC(=O)Oc1ccc2c(c1)[C@]1(C)CCN(C)[C@@H]1N2C", "note": "[eserine]", "IC50": 41.7}, {"smiles": "CCOC(=O)CC(SP(=S)(OC)OC)C(=O)OCC", "note": "(stereo not shown) [malathion]", "IC50": 1410}, {"smiles": "CNC(=O)Oc1ccccc1C(C)C", "note": "[isoprocarb]", "IC50": 11.1}, {"smiles": "CNC(=O)Oc1cc(C)c(SC)c(C)c1", "note": "[methiocarb]", "IC50": 65.8}, {"smiles": "CNC(=O)CSP(=S)(OC)OC", "note": "[dimethoate]", "IC50": 1140}, {"smiles": "COP(N)(=S)Oc1ccccc1C(=O)OC(C)C", "note": "(stereo not shown) [isocarbophos]", "IC50": 910}, {"smiles": "CNC(=O)Oc1cccc2c1OC(C)(C)C2", "note": "[carbofuran]", "IC50": 1.92}]}]}
